Test results from publication PMC12951562, “SH2scan: Mapping SH2 Domain-Ligand Binding Selectivity for Inhibitors and Degraders” (Journal of Medicinal Chemistry, 2026).

Tests used:
Assay in all cases: biochemical
Type in all cases: binding
PIK3R2(SH2dom.C-term.) = target: T1, PIK3R2(SH2dom.C-term.) (Homo sapiens, UniProt O00459); conditions: for remaining activity at 10 µM: read-out: percent of DMSO vehicle control
T1 construct: SH2dom.C-term. denotes SH2 domain closest to C-terminus of protein; made in house; host or cells: HEK293 (transient transfection, unpurified extract)
T1 sequence (O00459 622-716 limits assumed): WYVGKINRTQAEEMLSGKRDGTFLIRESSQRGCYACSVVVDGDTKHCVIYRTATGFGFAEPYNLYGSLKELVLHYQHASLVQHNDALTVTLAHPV

FYN = target: T2, FYN (Homo sapiens, UniProt P06241); conditions: read-out: percent of DMSO vehicle control
T2 construct: the DNA-tagged SH2 domain concentrations used in this study were <0.1 nM; made in house; host or cells: HEK293 (transient transfection; unpurified extract)

PTPN6(SH2dom.N-term.) = target: T3, PTPN6(SH2dom.N-term.) (Homo sapiens, UniProt P29350); conditions: read-out: percent of DMSO vehicle control
T3 construct: SH2dom.N-term. denotes SH2 domain closest to N-terminus of protein; made in house; host or cells: HEK293 (transient transfection, unpurified extract)
T3 sequence (P29350 4-100 limits assumed): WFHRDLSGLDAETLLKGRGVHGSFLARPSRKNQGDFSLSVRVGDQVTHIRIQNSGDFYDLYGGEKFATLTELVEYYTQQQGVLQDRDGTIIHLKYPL

STAP2 = target: T4, STAP2 (Homo sapiens, UniProt Q9UGK3); conditions: read-out: percent of DMSO vehicle control
T4 construct: made in house; host or cells: HEK293 (transient transfection), unpurified extract
T4 sequence (Q9UGK3 1-403): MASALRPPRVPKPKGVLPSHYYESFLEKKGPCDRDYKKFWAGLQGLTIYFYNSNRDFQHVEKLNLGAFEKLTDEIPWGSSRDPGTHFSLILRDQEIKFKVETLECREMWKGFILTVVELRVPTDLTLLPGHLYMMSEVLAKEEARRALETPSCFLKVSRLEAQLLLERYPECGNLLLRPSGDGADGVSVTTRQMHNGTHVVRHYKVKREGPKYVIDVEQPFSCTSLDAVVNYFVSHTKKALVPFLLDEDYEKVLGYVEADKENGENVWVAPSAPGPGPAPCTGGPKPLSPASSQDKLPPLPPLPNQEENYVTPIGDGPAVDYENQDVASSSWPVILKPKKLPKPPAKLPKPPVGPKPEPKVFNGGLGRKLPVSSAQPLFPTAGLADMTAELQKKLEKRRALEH

FRK = target: T5, FRK (Homo sapiens, UniProt P42685); conditions: read-out: percent of DMSO vehicle control
T5 construct: the DNA-tagged SH2 domain concentrations used in this study were <0.1 nM; made in house; host or cells: HEK293 (transient transfection; unpurified extract)

SH3BP2 = target: T6, SH3BP2 (Homo sapiens, UniProt P78314); conditions: read-out: percent of DMSO vehicle control
T6 construct: made in house; host or cells: HEK293 (transient transfection), unpurified extract
T6 sequence (P78314 1-561): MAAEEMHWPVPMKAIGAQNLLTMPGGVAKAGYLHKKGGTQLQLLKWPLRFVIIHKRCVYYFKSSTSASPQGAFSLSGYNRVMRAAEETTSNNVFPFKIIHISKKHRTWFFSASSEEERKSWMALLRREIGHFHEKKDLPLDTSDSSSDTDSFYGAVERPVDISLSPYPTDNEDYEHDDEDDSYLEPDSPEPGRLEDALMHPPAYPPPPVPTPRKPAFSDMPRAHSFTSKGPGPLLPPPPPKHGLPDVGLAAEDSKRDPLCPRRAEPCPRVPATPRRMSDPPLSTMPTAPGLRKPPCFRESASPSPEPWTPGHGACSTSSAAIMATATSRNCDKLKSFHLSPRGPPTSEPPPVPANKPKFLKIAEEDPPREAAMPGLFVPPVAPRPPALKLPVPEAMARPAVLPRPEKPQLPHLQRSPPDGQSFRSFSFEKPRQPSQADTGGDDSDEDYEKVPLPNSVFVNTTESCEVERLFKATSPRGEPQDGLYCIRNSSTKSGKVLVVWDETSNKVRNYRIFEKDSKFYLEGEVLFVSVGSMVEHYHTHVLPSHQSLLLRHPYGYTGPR

FER = target: T7, FER (Homo sapiens, UniProt P16591); conditions: read-out: percent of DMSO vehicle control
T7 construct: the DNA-tagged SH2 domain concentrations used in this study were <0.1 nM; made in house; host or cells: HEK293 (transient transfection; unpurified extract)

DAPP1 = target: T8, DAPP1 (Homo sapiens, UniProt Q9UN19); conditions: read-out: percent of DMSO vehicle control
T8 construct: the DNA-tagged SH2 domain concentrations used in this study were <0.1 nM; made in house; host or cells: HEK293 (transient transfection; unpurified extract)
T8 sequence (Q9UN19 35-129 limits assumed): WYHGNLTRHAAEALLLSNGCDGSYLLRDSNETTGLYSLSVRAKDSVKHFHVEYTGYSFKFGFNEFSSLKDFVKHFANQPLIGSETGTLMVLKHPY

ITK = target: T9, ITK (Homo sapiens, UniProt Q08881); conditions: primary screen, 10 μM
T9 construct: the DNA-tagged SH2 domain concentrations used in this study were <0.1 nM; made in house; host or cells: HEK293 (transient transfection, unpurified extract)
T9 sequence (Q08881 239-338 limits assumed): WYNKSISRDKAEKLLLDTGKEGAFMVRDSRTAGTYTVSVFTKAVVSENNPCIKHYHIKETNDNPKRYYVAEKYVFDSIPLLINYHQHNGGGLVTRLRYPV

SHC2 = target: T10, SHC2 (Homo sapiens, UniProt P98077); conditions: read-out: percent of DMSO vehicle control
T10 construct: made in house; host or cells: HEK293 (transient transfection), unpurified extract
T10 sequence (P98077 1-582): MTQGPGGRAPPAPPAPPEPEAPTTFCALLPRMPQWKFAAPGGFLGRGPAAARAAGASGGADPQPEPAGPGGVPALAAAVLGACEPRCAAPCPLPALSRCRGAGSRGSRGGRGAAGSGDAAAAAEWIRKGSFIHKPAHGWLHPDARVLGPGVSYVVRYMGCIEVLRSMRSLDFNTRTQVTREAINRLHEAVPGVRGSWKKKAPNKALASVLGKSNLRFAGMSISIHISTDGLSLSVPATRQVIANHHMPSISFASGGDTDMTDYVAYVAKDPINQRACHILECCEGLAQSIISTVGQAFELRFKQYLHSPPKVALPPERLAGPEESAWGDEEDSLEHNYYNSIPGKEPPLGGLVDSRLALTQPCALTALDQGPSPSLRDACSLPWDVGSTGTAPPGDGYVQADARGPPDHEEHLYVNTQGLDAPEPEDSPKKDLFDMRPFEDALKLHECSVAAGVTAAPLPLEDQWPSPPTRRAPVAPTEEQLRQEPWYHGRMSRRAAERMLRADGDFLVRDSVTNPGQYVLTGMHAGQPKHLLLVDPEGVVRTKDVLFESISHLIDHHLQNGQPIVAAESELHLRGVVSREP

RASA1(SH2dom.N-term.) = target: T11, RASA1(SH2dom.N-term.) (Homo sapiens, UniProt P20936); conditions: read-out: percent of DMSO vehicle control
T11 construct: SH2dom.N-term. denotes SH2 domain closest to N-terminus of protein; made in house; host or cells: HEK293 (transient transfection), unpurified extract
T11 sequence (P20936 181-272 limits assumed): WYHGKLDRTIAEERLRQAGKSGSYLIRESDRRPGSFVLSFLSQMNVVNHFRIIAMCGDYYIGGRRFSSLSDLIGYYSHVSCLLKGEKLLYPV

PIK3R3(SH2dom.N-term.) = target: T12, PIK3R3(SH2dom.N-term.) (Homo sapiens, UniProt Q92569); conditions: read-out: percent of DMSO vehicle control
T12 construct: SH2dom.N-term. denotes SH2 domain closest to N-terminus of protein; made in house; host or cells: HEK293 (transient transfection, unpurified extract)

T2 sequence (P06241 149-246 limits assumed): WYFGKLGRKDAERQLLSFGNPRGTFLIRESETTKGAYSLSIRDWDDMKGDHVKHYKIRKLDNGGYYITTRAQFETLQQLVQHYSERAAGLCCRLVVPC
T7 sequence (P16591 460-550 limits assumed): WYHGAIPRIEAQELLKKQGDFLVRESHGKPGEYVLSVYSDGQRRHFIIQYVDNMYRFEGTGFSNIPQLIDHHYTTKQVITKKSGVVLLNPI
T5 sequence (P42685 116-208 limits assumed): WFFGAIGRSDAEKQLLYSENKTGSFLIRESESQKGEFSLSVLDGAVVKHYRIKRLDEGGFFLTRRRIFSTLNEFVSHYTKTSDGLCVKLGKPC

| SMILES | KD (PIK3R2(SH2dom.C-term.); dose-response) | remaining activity at 10 µM (PIK3R2(SH2dom.C-term.)) [%] | percent of DMSO vehicle control at 10 µM (FYN) [%] | remaining activity at 10 µM (PTPN6(SH2dom.N-term.)) [%] | percent of DMSO vehicle control at 10 µM (STAP2) [%] | percent of DMSO vehicle control at 10 µM (FRK) [%] | remaining activity at 10 µM (SH3BP2) [%] | percent of DMSO vehicle control at 10 µM (FER) [%] | percent of DMSO vehicle control at 10 µM (DAPP1) [%] | percent of DMSO vehicle control (ITK) [%] | remaining activity at 10 µM (SHC2) [%] | remaining activity at 10 µM (RASA1(SH2dom.N-term.)) [%] | remaining activity at 10 µM (PIK3R3(SH2dom.N-term.)) [%] |
| --- | --- | --- | --- | --- | --- | --- | --- | --- | --- | --- | --- | --- | --- |
| CC(=O)N[C@@H](Cc1ccc(CP(=O)(O)O)cc1)C(=O)NC1(C(=O)N[C@@H](CC(N)=O)C(=O)NCCCc2c(O)ccc3ccccc23)CCCCC1 [CGP78850] | No Hit | 0.4 ± 0.4 | 53.7 ± 4.6 | 112 ± 9.8 | 86 ± 7.4 | 89.4 ± 19.2 | 77.8 ± 0.5 | 136 ± 7.5 | 136 ± 2.8 | 113.6±8.8 | 100 ± 8.5 | 47.6 ± 2.5 | 111 ± 10.3 |
| CC(=O)N1CC[C@H]2CC[C@@H](C(=O)N[C@@H](CCC(N)=O)C(=O)NC(c3ccccc3)c3ccccc3)N2C(=O)[C@@H](NC(=O)c2cc3cc(C(F)(F)P(=O)(O)O)ccc3[nH]2)C1 [SI-109] |  | 120 | 97.3 | 123 | 130 | 151 | 131 | 107 | 149 | 124.2 | 131 | 123 | 142 |
